# Test results published in patent US10323038B2, “Pyrazole compounds and methods of making and using same” (ABIDE THERAPEUTICS, INC., priority 2015, dated 2019).
# Experiments:
# MAGL = MAGL (Mus musculus (Mouse), UniProt O35678); assay: In vitro competitive activity-based protein profiling, MAGL (mouse); format: biochemical; settings: for inhibition at 1 µM: read-out: MAGL % inh. 1 μM (mouse)
# Procedure, shortened: (§1)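 Residual MAGL and FAAH activity quantified from fluorescent gel bands after SDS-PAGE. Before that, FP-Rh or HT-01 probe (50 μM stock) labelled for 30 min at 37 °C, following 30 min inhibitor preincubation. Mouse assays used brain membrane fraction or cell lysates, human used prefrontal cortex or cell membranes, all at 1.0 mg/mL protein.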
# FAAH = FAAH (Mus musculus (Mouse), UniProt O08914); assay: In vitro competitive activity-based protein profiling, FAAH (mouse); format: biochemical; settings: for inhibition at 1 µM: read-out: FAAH % inh. 1 μM (mouse)
# Chain of FAAH (O08914 whole entry): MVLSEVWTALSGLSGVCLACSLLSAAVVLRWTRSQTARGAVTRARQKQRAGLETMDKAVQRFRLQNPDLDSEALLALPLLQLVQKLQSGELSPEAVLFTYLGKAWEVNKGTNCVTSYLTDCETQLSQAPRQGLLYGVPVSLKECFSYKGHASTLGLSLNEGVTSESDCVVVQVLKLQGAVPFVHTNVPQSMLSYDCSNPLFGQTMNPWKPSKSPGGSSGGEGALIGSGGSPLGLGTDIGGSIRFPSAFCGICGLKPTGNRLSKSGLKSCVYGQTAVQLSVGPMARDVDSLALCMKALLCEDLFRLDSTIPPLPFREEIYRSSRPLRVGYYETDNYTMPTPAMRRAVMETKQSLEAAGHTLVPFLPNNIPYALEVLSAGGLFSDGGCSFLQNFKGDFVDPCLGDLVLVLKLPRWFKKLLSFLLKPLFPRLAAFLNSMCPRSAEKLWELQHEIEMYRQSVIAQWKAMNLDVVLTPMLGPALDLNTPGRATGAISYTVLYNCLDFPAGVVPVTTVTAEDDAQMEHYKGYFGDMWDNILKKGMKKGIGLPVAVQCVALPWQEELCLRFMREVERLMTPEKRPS
# Procedure, shortened: as §1
# Chain of MAGL (O35678 whole entry): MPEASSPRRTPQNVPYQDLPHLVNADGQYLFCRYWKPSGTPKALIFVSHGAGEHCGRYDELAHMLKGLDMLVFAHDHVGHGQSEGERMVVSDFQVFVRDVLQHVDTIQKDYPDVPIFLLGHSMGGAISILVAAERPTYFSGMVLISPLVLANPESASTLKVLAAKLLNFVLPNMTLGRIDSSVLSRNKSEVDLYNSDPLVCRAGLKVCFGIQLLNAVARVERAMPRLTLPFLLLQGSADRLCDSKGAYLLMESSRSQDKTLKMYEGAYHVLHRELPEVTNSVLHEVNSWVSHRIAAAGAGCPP
Structure (SMILES),inhibition at 1 µM (MAGL; 1 μM) [%],inhibition at 1 µM (FAAH; 1 μM) [%],IC50 (MAGL) [µM],IC50 (FAAH) [µM],MAGL % inh. 1 μM (mouse) (MAGL; 1 μM),FAAH % inh. 1 μM (mouse) (FAAH; 1 μM)
"CC(=O)N(C)c1cnn(C(=O)N2CCN(Cc3ccccc3N3CCCC3)CC2)c1 [Example 215, N-methyl-N-(1-(4-(2-(pyrrolidin-1-yl)benzyl)piperazine-1-carbonyl)-1H-pyrazol-4-yl)acetamide]",≥ 75,25 to 50,–,–,–,–
"CC(=O)N(C)c1cnn(C(=O)N2CCN(Cc3ccc(N4CCOCC4)cc3Cl)CC2)c1 [Example 203, N-(1-(4-(2-chloro-4-morpholinobenzyl)piperazine-1-carbonyl)-1H-pyrazol-4-yl)-N-methylacetamide]",≥ 75,≥ 75,≤ 0.1,0.1 to 1,–,–
"CC(=O)N(C)c1cnn(C(=O)N2CCC3(CCN(Cc4cc(Cl)cc(Cl)c4)C3)C2)c1 (stereo not drawn) [Example 53, N-(1-(7-(3,5-dichlorobenzyl)-2,7-diazaspiro[4.4]nonane-2-carbonyl)-1H-pyrazol-4-yl)-N-methylacetamide]",≥ 75,≥ 75,0.1 to 1,≤ 0.1,–,–
"CC(=O)N(C)c1cnn(C(=O)N2C[C@H]3C[C@H](NCc4cccc(Cl)c4)C[C@H]3C2)c1 [Example 137, N-(1-(trans-5-(3-chlorobenzylamino)octahydrocyclopenta[c]pyrrole-2-carbonyl)-1H-pyrazol-4-yl)-N-methylacetamide]",≥ 75,≥ 75,0.1 to 1,0.1 to 1,–,–
"CC(=O)N(C)c1cnn(C(=O)N2C[C@H]3C[C@H](NCc4ccc(Cl)cc4)C[C@H]3C2)c1 [Example 138, N-(1-(trans-5-(4-chlorobenzylamino)octahydrocyclopenta[c]pyrrole-2-carbonyl)-1H-pyrazol-4-yl)-N-methylacetamide]",≥ 75,≥ 75,–,–,–,–
"CC(=O)N(C)c1cnn(C(=O)N2C[C@H]3C[C@H](N(C)Cc4cc(C(F)(F)F)ccc4C(F)(F)F)C[C@H]3C2)c1 [Example 146, N-(1-(trans-5-((2,5-bis(trifluoromethyl)benzyl)(methyl)amino)octahydrocyclopenta[c]pyrrole-2-carbonyl)-1H-pyrazol-4-yl)-N-methylacetamide]",≥ 75,≥ 75,–,–,–,–
"COc1ccccc1CN1CCN(C(=O)n2cc(N(C)C(C)=O)cn2)CC1 [Example 213, N-(1-(4-(2-methoxybenzyl)piperazine-1-carbonyl)-1H-pyrazol-4-yl)-N-methylacetamide]",≥ 75,0 to 25,–,–,–,–
"CC(=O)N(C)c1cnn(C(=O)N2CC3CN(Cc4cccc(Cl)c4)CC3C2)c1 (stereo not drawn) [Example 10, N-(1-(5-(3-chlorobenzyl)octahydropyrrolo[3,4-c]pyrrole-2-carbonyl)-1H-pyrazol-4-yl)-N-methylacetamide]",≥ 75,≥ 75,0.1 to 1,0.1 to 1,–,–
"CC(=O)N(C)c1cnn(C(=O)N2CCC3(CCN(Cc4ccc(-c5cccnn5)cc4Cl)C3)C2)c1 (stereo not drawn) [Example 263, N-(1-(7-(2-chloro-4-(pyridazin-3-yl)benzyl)-2,7-diazaspiro[4.4]nonane-2-carbonyl)-1H-pyrazol-4-yl)-N-methylacetamide]",≥ 75,≥ 75,–,–,–,–
"CC(=O)N(C)c1cnn(C(=O)N2CCC3(CCN(Cc4cccc(C(F)(F)F)c4)C3)C2)c1 (stereo not drawn) [Example 64, N-methyl-N-(1-(7-(3-(trifluoromethyl)benzyl)-2,7-diazaspiro[4.4]nonane-2-carbonyl)-1H-pyrazol-4-yl)acetamide]",≥ 75,≥ 75,0.1 to 1,≤ 0.1,–,–
"CC(=O)N(C)c1cnn(C(=O)N2CCC3(CCN(Cc4ccc(N5CCCC5)c(Cl)c4)C3)C2)c1 (stereo not drawn) [Example 67, N-(1-(7-(3-chloro-4-(pyrrolidin-1-yl)benzyl)-2,7-diazaspiro[4.4]nonane-2-carbonyl)-1H-pyrazol-4-yl)-N-methylacetamide]",≥ 75,≥ 75,0.1 to 1,≤ 0.1,–,–
"CC(=O)N(C)c1cnn(C(=O)N2CCN(Cc3cccc(C(F)(F)F)c3)CC2)c1 [Example 209, N-methyl-N-(1-(4-(3-(trifluoromethyl)benzyl)piperazine-1-carbonyl)-1H-pyrazol-4-yl)acetamide]",≥ 75,≥ 75,≤ 0.1,≤ 0.1,–,–
"CC(=O)N(C)c1cnn(C(=O)N2CCC3(CC2)CN(Cc2ccc(C)cc2)C3)c1 [Example 32, N-methyl-N-(1-(2-(4-methylbenzyl)-2,7-diazaspiro[3.5]nonane-7-carbonyl)-1H-pyrazol-4-yl)acetamide]",≥ 75,25 to 50,–,–,–,–
"CC(=O)N(C)c1cnn(C(=O)N2CC3CN(Cc4ccc(N5CCOCC5)c(Cl)c4)CC3C2)c1 (stereo not drawn) [Example 95, N-(1-(5-(3-chloro-4-morpholinobenzyl)octahydropyrrolo[3,4-c]pyrrole-2-carbonyl)-1H-pyrazol-4-yl)-N-methylacetamide]",≥ 75,≥ 75,–,–,–,–
"CC(=O)N(C)c1cnn(C(=O)N2CC3CN(Cc4cc(C(F)(F)F)ccc4Cl)CC3C2)c1 (stereo not drawn) [Example 106, N-(1-(5-(2-chloro-5-(trifluoromethyl)benzyl)octahydropyrrolo[3,4-c]pyrrole-2-carbonyl)-1H-pyrazol-4-yl)-N-methylacetamide]",≥ 75,≥ 75,–,–,–,–
"CC(=O)N(C)c1cnn(C(=O)N2CC3CN(Cc4cccc(Cl)c4C)CC3C2)c1 (stereo not drawn) [Example 103, N-(1-(5-(3-chloro-2-methylbenzyl)octahydropyrrolo[3,4-c]pyrrole-2-carbonyl)-1H-pyrazol-4-yl)-N-methylacetamide]",≥ 75,≥ 75,≤ 0.1,≤ 0.1,–,–
"CC(=O)N(C)c1cnn(C(=O)N2CCC3(CCN(Cc4ccc(Cl)c(Cl)c4)C3)C2)c1 (stereo not drawn) [Example 1, N-(1-(7-(3,4-dichlorobenzyl)-2,7-diazaspiro[4.4]nonane-2-carbonyl)-1H-pyrazol-4-yl)-N-methylacetamide]",≥ 75,≥ 75,0.1 to 1,≤ 0.1,–,–
"CC(=O)N(C)c1cnn(C(=O)N2CCN(Cc3cc(N4CCCC4)cc(C(F)(F)F)c3)CC2)c1 [Example 190, N-methyl-N-(1-(4-(3-(pyrrolidin-1-yl)-5-(trifluoromethyl)benzyl)piperazine-1-carbonyl)-1H-pyrazol-4-yl)acetamide]",≥ 75,50 to 75,≤ 0.1,1 to 10,–,–
"CN(Cc1ccccc1C(F)(F)F)[C@H]1C[C@@H]2CN(C(=O)n3cc(NS(C)(=O)=O)cn3)C[C@@H]2C1 [Example 299, N-(1-(trans-5-(methyl(2-(trifluoromethyl)benzyl)amino)octahydrocyclopenta[c]pyrrole-2-carbonyl)-1H-pyrazol-4-yl)methanesulfonamide]",≥ 75,≥ 75,–,–,–,–
"CC(=O)N(C)c1cnn(C(=O)N2CC3CN(Cc4ccc(-c5nccs5)cc4Cl)CC3C2)c1 (stereo not drawn) [Example 267, N-(1-(5-(2-chloro-4-(thiazol-2-yl)benzyl)octahydropyrrolo[3,4-c]pyrrole-2-carbonyl)-1H-pyrazol-4-yl)-N-methylacetamide]",≥ 75,≥ 75,–,–,–,–
CC(=O)Nc1cnn(C(=O)N2CCN(Cc3cc(N4CCCC4)cc(C(F)(F)F)c3)CC2)c1 [Example 227],–,–,0.1 to 1,0.1 to 1,A (A = % inhibition greater than or equal to 75%),B (B = % inhibition greater than or equal to 50% and less than 75%)
"COc1cccc(CN2CCN(C(=O)n3cc(N(C)C(C)=O)cn3)CC2)c1 [Example 207, N-(1-(4-(3-methoxybenzyl)piperazine-1-carbonyl)-1H-pyrazol-4-yl)-N-methylacetamide]",≥ 75,≥ 75,–,–,–,–
"CC(=O)N(C)c1cnn(C(=O)N2C[C@H]3C[C@@H](N(C)Cc4ccc(N5C6CCC5COC6)cc4C(F)(F)F)C[C@H]3C2)c1 [Example 149, N-(1-(cis-5-((4-(3-oxa-8-azabicyclo[3.2.1]octan-8-yl)-2-(trifluoromethyl)benzyl)(methyl)amino)octahydrocyclopenta[c]pyrrole-2-carbonyl)-1H-pyrazol-4-yl)-N-methylacetamide]",≥ 75,≥ 75,–,–,–,–
"CC(=O)N(C)c1cnn(C(=O)N2CC3CN(Cc4cc(C)cc(C)c4)CC3C2)c1 (stereo not drawn) [Example 108, N-(1-(5-(3,5-dimethylbenzyl)octahydropyrrolo[3,4-c]pyrrole-2-carbonyl)-1H-pyrazol-4-yl)-N-methylacetamide]",≥ 75,≥ 75,0.1 to 1,≤ 0.1,–,–
"CC(=O)N(C)c1cnn(C(=O)N2CC3CN(Cc4cc(Cl)cc(Cl)c4)CC3C2)c1 (stereo not drawn) [Example 105, N-(1-(5-(3,5-dichlorobenzyl)octahydropyrrolo[3,4-c]pyrrole-2-carbonyl)-1H-pyrazol-4-yl)-N-methylacetamide]",≥ 75,≥ 75,≤ 0.1,≤ 0.1,–,–
"CC(=O)N(C)c1cnn(C(=O)N2CC3CN(Cc4cccc(F)c4)CC3C2)c1 (stereo not drawn) [Example 180, N-(1-(5-(3-fluorobenzyl)octahydropyrrolo[3,4-c]pyrrole-2-carbonyl)-1H-pyrazol-4-yl)-N-methylacetamide]",50 to 75,≥ 75,0.1 to 1,0.1 to 1,–,–
"CC(=O)N(C)c1cnn(C(=O)N2CC3CN(Cc4ccc(C)cc4)CC3C2)c1 (stereo not drawn) [Example 91, N-methyl-N-(1-(5-(4-methylbenzyl)octahydropyrrolo[3,4-c]pyrrole-2-carbonyl)-1H-pyrazol-4-yl)acetamide]",50 to 75,≥ 75,0.1 to 1,0.1 to 1,–,–
